Earlier results in patent US20130079371A1, “Bioadhesive Compositions of Local Anaesthetics” (PHARMANEST AB, priority 2010, published 2013).

pKa: 8.1
SMILES: CCCCN1CCCC[C@H]1C(=O)Nc1c(C)cccc1C [levobupivacaine]
